Experimental data from ChEMBL document CHEMBL4219094, “Synthesis and evaluation of substituted 4-arylimino-3-hydroxybutanoic acids as potential HIV-1 integrase inhibitors” (Bioorg Med Chem Lett, 2018).

Assays:
[1] = Cytotoxicity against HEK293 cells after 48 hrs by resazurin dye-based fluorescence assay; format: cell-based; conditions: human
HEK293 = experiment: Cytotoxicity against HEK293 cells at 100 uM after 48 hrs by resorufin dye-based fluorescence assay relative to control; format: cell-based; conditions: human, hek293, 48 h
[2] = biological target: Human immunodeficiency virus type 1 integrase (Human immunodeficiency virus 1, UniProt Q7ZJM1); experiment: Inhibition of HIV-1 subtype C integrase in presence of biotinylated DNA by colorimetric analysis
Human immunodeficiency virus type 1 integrase, sequence (Q7ZJM1 whole entry): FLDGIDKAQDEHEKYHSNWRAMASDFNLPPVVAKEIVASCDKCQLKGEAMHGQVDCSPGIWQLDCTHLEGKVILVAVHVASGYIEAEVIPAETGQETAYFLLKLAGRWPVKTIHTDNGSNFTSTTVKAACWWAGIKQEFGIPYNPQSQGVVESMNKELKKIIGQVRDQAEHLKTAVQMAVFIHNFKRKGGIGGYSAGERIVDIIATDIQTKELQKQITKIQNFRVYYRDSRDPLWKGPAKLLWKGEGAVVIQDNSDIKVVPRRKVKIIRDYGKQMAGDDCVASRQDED

| IC50 [2] | Structure (SMILES) | CC50 at 48 h [1] | Activity (HEK293) |
| --- | --- | --- | --- |
|  | CC[C@H]1CN2CCc3cc(OC)c(OC)cc3[C@@H]2C[C@@H]1C[C@H]1NCCc2cc(OC)c(OC)cc21 [EMETINE] | 0.071 µM |  |
| 65.1 µM | O=C(O)CC(O)/C=N/c1cc([N+](=O)[O-])ccc1O (configuration not stated) |  | Non-Toxic |
| > 100 µM | O=C(O)CC(O)/C=N/c1cc(Cl)cc(Br)c1O (configuration not stated) | 109 µM |  |
| 3.52 µM | O=C(O)CC(O)/C=N/c1ccc(O)c(O)c1O (configuration not stated) |  | Non-Toxic |
| 38.7 µM | O=C(O)CC(O)/C=N/c1ccc(O)c(O)c1 (configuration not stated) |  | Non-Toxic |
| > 100 µM | O=C(O)CC(O)/C=N/c1ccccc1O (configuration not stated) |  | Non-Toxic |
| > 100 µM | O=C(O)CC(O)/C=N/c1cc(Cl)cc(Cl)c1O (configuration not stated) | 101 µM |  |
| 53.2 µM | O=C(O)CC(O)/C=N/c1cccc(O)c1O (configuration not stated) |  | Non-Toxic |
| 26.4 µM | O=C(O)CC(O)/C=N/c1cc(Br)cc(Br)c1O (configuration not stated) | 104 µM |  |
